Assay results as given in patent publication US12600709B2, “Nonpeptide somatostatin type 5 receptor agonists and uses thereof” (Crinetics Pharmaceuticals, Inc., priority 2019, dated 2026).
Read-outs that look alike come from different tables or passages of the source.

Tests used:
[1] = target: T1, human somatostatin receptor subtype 5 (Homo sapiens, UniProt P35346); assay: cAMP assay for SST5R (inhibition of cAMP in CHO-K1 cells); assay type: cell-based; conditions: for EC50: inhibition of cAMP via human SST5 receptor, read-out: SST5 potency
T1 construct: expressed in transfected cells
T1 sequence (P35346 whole entry): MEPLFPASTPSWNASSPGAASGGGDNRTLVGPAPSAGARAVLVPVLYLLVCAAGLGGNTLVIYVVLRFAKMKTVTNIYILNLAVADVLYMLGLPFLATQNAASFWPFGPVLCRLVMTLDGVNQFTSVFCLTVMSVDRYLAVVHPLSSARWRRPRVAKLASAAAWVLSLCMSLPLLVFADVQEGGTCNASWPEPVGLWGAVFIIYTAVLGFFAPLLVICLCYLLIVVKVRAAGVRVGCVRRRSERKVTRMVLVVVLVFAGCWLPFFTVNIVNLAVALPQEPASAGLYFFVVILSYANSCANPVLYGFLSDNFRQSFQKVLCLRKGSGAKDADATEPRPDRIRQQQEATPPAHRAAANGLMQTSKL
Procedure, shortened: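 CHO-K1 cells stably expressing human SSTR5 were treated 20 min at 37 °C with compounds plus 1.6 μM NKH477 in HBSS, 0.5 mM HEPES pH 7.4, 0.1% BSA, 0.2 mM IBMX. Lysate cAMP measured by HTRF against a standard curve; EC50 from cAMP-versus-concentration plots.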

[2] = target: T2, human somatostatin receptor subtype 2 (Homo sapiens, UniProt P30874); assay: cAMP assay for SST2R (inhibition of cAMP in CHO-K1 cells); assay type: cell-based; conditions: Table B; inhibition of cAMP via human SST2 receptor; read-out: SST2 potency
T2 construct: expressed in transfected cells
T2 sequence (P30874 whole entry): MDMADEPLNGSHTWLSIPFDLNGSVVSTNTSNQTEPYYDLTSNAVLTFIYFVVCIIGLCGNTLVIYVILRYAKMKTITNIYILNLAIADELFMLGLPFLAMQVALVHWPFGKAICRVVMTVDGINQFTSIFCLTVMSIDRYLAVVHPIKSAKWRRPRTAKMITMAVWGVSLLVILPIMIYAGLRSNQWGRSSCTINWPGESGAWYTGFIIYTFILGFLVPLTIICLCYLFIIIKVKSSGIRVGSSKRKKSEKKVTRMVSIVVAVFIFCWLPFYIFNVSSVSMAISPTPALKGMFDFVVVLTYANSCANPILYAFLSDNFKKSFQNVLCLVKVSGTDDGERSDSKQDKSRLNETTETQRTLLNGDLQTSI
Procedure, shortened: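 CHO-K1 cells stably expressing human SSTR2, plated 4 days prior, treated 20 min at 37° C with 1.6 μM NKH477 plus compound dilutions in HBSS/HEPES pH 7.4/0.1% BSA/0.2 mM IBMX. Lysate cAMP measured by HTRF against standard curve; EC50 from concentration-response.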

[3] = Table B, class symbols, SST5 receptor over SST2 receptor
[4] = Table B, numeric values for comparison compounds

Compound | EC50 ([1]; Table A) [nM] | Fold selectivity for SST5 vs SST2 [1, 3] | EC50 ([1]; Table B) [nM] | EC50 [2] [nM] | Fold selectivity for SST5 vs SST2 [1, 4]
Cc1cccc2[nH]c(-c3cncc(C(=O)N4CCC(C5CC5)C4)c3N3CC[C@](C)(N)C3)nc12 (stereo partly drawn) [2-42, (3S)-1-[3-(3-cyclopropylpyrrolidine-1-carbonyl)-5-(4-methyl-1H-1,3-benzodiazol-2-yl)pyridin-4-yl]-3-methylpyrrolidin-3-amine] | < 10 | ++ (++=100 to 499) | < 10 | 100 to 1000 | 
Cc1cccc2[nH]c(-c3cncc(C(=O)N4CCCC4C4CC4)c3N3CC[C@](C)(N)C3)nc12 (stereo partly drawn) [2-43, (3S)-1-[3-(2-cyclopropylpyrrolidine-1-carbonyl)-5-(4-methyl-1H-1,3-benzodiazol-2-yl)pyridin-4-yl]-3-methylpyrrolidin-3-amine] | < 10 | + (+=10 to 99) | < 10 | 10 to 100 | 
C[C@]1(N)CCN(c2c(C(=O)N3C4CC5CC(C4)CC3C5)cncc2-c2nc3cccc(Cl)c3[nH]2)C1 [2-45, (3S)-1-(3-{2-azatricyclo[3.3.1.1^3,7]decane-2-carbonyl}-5-(7-chloro-1H-1,3-benzodiazol-2-yl)pyridin-4-yl)-3-methylpyrrolidin-3-amine] | < 10 | ++ (++=100 to 499) | < 10 | 100 to 1000 | 
C[C@]1(N)CCN(c2c(C(=O)NC3CCCCC3)ccnc2-c2cc(F)cc(F)c2)C1 [3-2, 3-[(3S)-3-amino-3-methylpyrrolidin-1-yl]-N-cyclohexyl-2-(3,5-difluorophenyl)pyridine-4-carboxamide] | < 10 | +++ (+++=>500) | < 10 | > 1000 | 
C[C@]1(N)CCN(c2c(C(=O)NC3CCCCCC3)ccnc2-c2cc(F)cc(F)c2)C1 [3-6, 3-[(3S)-3-amino-3-methylpyrrolidin-1-yl]-N-cycloheptyl-2-(3,5-difluorophenyl)pyridine-4-carboxamide] | < 10 | +++ (+++=>500) | < 10 | > 1000 | 
C[C@H](NC(=O)c1ncc(Cl)c(-c2cc(F)cc(F)c2)c1N1CC[C@](C)(N)C1)C1CC1 [4-1, 3-[(3S)-3-amino-3-methylpyrrolidin-1-yl]-5-chloro-N-[(1S)-1-cyclopropylethyl]-4-(3,5-difluorophenyl)pyridine-2-carboxamide] | < 10 | +++ (+++=>500) | < 10 | > 1000 | 
Cc1cc(C)cc(NC(=O)c2cncc(-c3cc(C)cc(C)c3)c2N2CCC(CN)C2)c1 (centres unmarked) [4-(3-(aminomethyl)pyrrolidin-1-yl)-N,5-bis(3,5-dimethylphenyl)nicotinamide, reference compound] |  |  | < 10 | < 10 | 0.084
Cc1cc(C)cc(-c2cncc(NC(=O)c3ccc(F)c(Cl)c3)c2N2CCC(CN)C2)c1 (centres unmarked) [N-(4-(3-(aminomethyl)pyrrolidin-1-yl)-5-(3,5-dimethylphenyl)pyridin-3-yl)-3-chloro-4-fluorobenzamide, reference compound] |  |  | > 1000 | < 10 | 0.0055

The remaining lines, values ahead:

EC50 ([1]; Table A) [nM] | Fold selectivity for SST5 vs SST2 [1, 3] | EC50 ([1]; Table B) [nM] | EC50 [2] [nM] | Fold selectivity for SST5 vs SST2 [1, 4] | Compound
< 10 | +++ (+++=>500) | < 10 | 100 to 1000 |  | Cc1cccc2[nH]c(-c3cncc(C(=O)N4C5CC6CC(C5)CC4C6)c3N3CC[C@](C)(N)C3)nc12 [2-26, (3S)-1-(3-{2-azatricyclo[3.3.1.1^3,7]decane-2-carbonyl}-5-(4-methyl-1H-1,3-benzodiazol-2-yl)pyridin-4-yl)-3-methylpyrrolidin-3-amine]
< 10 | + (+=10 to 99) | < 10 | 10 to 100 |  | Cc1cccc2[nH]c(-c3cncc(C(=O)N(C)[C@@H](C)C4CC4)c3N3CC[C@](C)(N)C3)nc12 [2-29, 4-[(3S)-3-amino-3-methylpyrrolidin-1-yl]-N-[(1S)-1-cyclopropylethyl]-N-methyl-5-(4-methyl-1H-1,3-benzodiazol-2-yl)pyridine-3-carboxamide]
< 10 | + (+=10 to 99) | < 10 | 10 to 100 |  | Cc1ccc(F)c2[nH]c(-c3cncc(C(=O)N[C@@H](C)C(F)(F)F)c3N3CC[C@](C)(N)C3)nc12 [2-30, 4-[(3S)-3-amino-3-methylpyrrolidin-1-yl]-5-(7-fluoro-4-methyl-1H-1,3-benzodiazol-2-yl)-N-[(2S)-1,1,1-trifluoropropan-2-yl]pyridine-3-carboxamide]
< 10 | ++ (++=100 to 499) | < 10 | 100 to 1000 |  | Cc1cccc2[nH]c(-c3cncc(C(=O)N4CC5CCC4CC5)c3N3CC[C@](C)(N)C3)nc12 [2-35, (3S)-1-(3-{2-azabicyclo[2.2.2]octane-2-carbonyl}-5-(4-methyl-1H-1,3-benzodiazol-2-yl)pyridin-4-yl)-3-methylpyrrolidin-3-amine]
< 10 | +++ (+++=>500) | < 10 | 100 to 1000 |  | Cc1cccc2[nH]c(-c3cncc(C(=O)N4CCCC4C(C)C)c3N3CC[C@](C)(N)C3)nc12 (stereo partly drawn) [2-36, (3S)-3-methyl-1-[3-(4-methyl-1H-1,3-benzodiazol-2-yl)-5-[2-(propan-2-yl)pyrrolidine-1-carbonyl]pyridin-4-yl]pyrrolidin-3-amine]
< 10 | ++ (++=100 to 499) | < 10 | 100 to 1000 |  | Cc1cccc2[nH]c(-c3cncc(C(=O)N4CC[C@H]5CCCC54)c3N3CC[C@](C)(N)C3)nc12 (stereo partly drawn) [2-37, (3S)-1-{3-[(3aR)-octahydrocyclopenta[b]pyrrole-1-carbonyl]-5-(4-methyl-1H-1,3-benzodiazol-2-yl)pyridin-4-yl}-3-methylpyrrolidin-3-amine]
< 10 | + (+=10 to 99) | < 10 | 100 to 1000 |  | Cc1cccc2[nH]c(-c3cncc(C(=O)NC4CCCCC4)c3N3CC[C@](C)(N)C3)nc12 [2-38, 4-[(3S)-3-amino-3-methylpyrrolidin-1-yl]-N-cyclohexyl-5-(4-methyl-1H-1,3-benzodiazol-2-yl)pyridine-3-carboxamide]
< 10 | + (+=10 to 99) | < 10 | 100 to 1000 |  | Cc1cccc2[nH]c(-c3cncc(C(=O)N4CCC[C@H]4C(F)(F)F)c3N3CC[C@](C)(N)C3)nc12 [2-41, (3S)-3-methyl-1-[3-(4-methyl-1H-1,3-benzodiazol-2-yl)-5-[(2S)-2-(trifluoromethyl)pyrrolidine-1-carbonyl]pyridin-4-yl]pyrrolidin-3-amine]
